Data: doi:10.1101/2024.07.10.602960v2, “Contrasting Kinetics of Highly Similar Chloroalkane Reductive Dehalogenases” (biorxiv, 2024)
Like-named read-outs stand apart in the source and are kept apart here.

Assays:
CfrA [1] = target: T1, CfrA (Dehalobacter sp. CF, UniProt K4LFB7); assay: inhibition of chloroform dechlorination, GC-FID, […] min; single TCE concentration fit; assay type: biochemical; settings: uncompetitive; chloroform as substrate, about […] TCE, […] Tris-HCl pH […] methyl viologen, Ti(III) citrate, […] °C
T1 construct: expressed from p15TVL-cfrA with pBAD42-BtuCEDFB in E. coli BL21(DE3) suf strain; partially purified; 48 kDa; cobamide and two iron-sulfur clusters
T1 sequence (K4LFB7 43-456 limits assumed): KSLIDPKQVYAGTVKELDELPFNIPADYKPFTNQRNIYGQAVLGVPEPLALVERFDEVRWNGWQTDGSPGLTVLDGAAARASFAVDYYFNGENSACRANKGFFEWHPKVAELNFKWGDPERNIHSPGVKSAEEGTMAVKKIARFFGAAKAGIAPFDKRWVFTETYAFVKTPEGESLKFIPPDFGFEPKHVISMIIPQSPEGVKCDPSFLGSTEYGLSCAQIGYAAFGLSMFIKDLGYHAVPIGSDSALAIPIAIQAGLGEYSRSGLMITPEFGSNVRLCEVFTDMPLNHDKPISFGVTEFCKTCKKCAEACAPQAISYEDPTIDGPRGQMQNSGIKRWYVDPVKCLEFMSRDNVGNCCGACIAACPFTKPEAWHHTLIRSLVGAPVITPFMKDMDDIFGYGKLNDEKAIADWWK

TmrA [2] = target: T2, TmrA (Dehalobacter sp. UNSWDHB, UniProt T0I6H2); assay: as above; assay type: biochemical; settings: uncompetitive; chloroform as substrate, about 45 µM TCE, 50 mM Tris-HCl pH 7.5, 1 mM methyl viologen, Ti(III) citrate, 20 °C
T2 construct: expressed from p15TVL-tmrA with pBAD42-BtuCEDFB in E. coli BL21(DE3) suf strain; partially purified; 48 kDa; cobamide and two iron-sulfur clusters
T2 sequence (T0I6H2 51-456): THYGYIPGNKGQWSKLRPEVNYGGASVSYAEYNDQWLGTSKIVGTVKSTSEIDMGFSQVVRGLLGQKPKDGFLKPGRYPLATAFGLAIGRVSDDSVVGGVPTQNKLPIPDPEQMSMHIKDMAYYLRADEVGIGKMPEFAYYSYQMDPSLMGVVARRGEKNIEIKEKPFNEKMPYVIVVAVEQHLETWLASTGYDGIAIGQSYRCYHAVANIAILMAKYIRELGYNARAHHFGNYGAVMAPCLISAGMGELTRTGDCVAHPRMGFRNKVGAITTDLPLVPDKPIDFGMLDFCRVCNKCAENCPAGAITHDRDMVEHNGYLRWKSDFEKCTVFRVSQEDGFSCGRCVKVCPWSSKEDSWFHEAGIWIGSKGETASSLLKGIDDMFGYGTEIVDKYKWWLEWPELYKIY

AcdA [3] = settings: 50 mM Tris-HCl pH 7.5, 1 mM methyl viologen, 5 mM Ti(III) citrate, anaerobic, 24 °C; substrate inhibition
AcdA [4] = settings: 50 mM Tris-HCl pH 7.5, 1 mM methyl viologen, 5 mM Ti(III) citrate, anaerobic, 24 °C
AcdA [5] = system: T3, AcdA; assay: GC-FID product formation in gas-tight syringe, […] min; Michaelis-Menten fit; assay type: biochemical, Dehalobacter sp.; settings: 50 mM Tris-HCl pH 7.5, 1 mM methyl viologen, 5 mM Ti(III) citrate, anaerobic, 24 °C
T3 construct: expressed from p15TVL-acdA with pBAD42-BtuCEDFB in E. coli BL21(DE3) suf strain; partially purified; 48 kDa; cobamide and two iron-sulfur clusters

AcdA [6] = system: T3, AcdA; assay: GC-FID, total consumption in gas-tight syringe, […] min; substrate-inhibition Michaelis-Menten fit; assay type: biochemical, Dehalobacter sp.; settings: 50 mM Tris-HCl pH 7.5, 1 mM methyl viologen, 5 mM Ti(III) citrate, anaerobic, 24 °C
AcdA [7] = target: T3, AcdA; assay: as above; assay type: biochemical, Dehalobacter sp.; settings: 50 mM Tris-HCl pH 7.5, 1 mM methyl viologen, 5 mM Ti(III) citrate, anaerobic, 24 °C; remark: listed apart in the source
CfrA [8] = target: T4, CfrA (Dehalobacter sp. CF, UniProt K4LFB7); assay: as above; assay type: biochemical; settings: 50 mM Tris-HCl pH 7.5, 1 mM methyl viologen, 5 mM Ti(III) citrate, anaerobic, 24 °C
T4 construct: expressed from p15TVL-cfrA with pBAD42-BtuCEDFB in E. coli BL21(DE3) suf strain; partially purified; 48 kDa; cobamide and two iron-sulfur clusters

TmrA [9] = target: T2, TmrA; assay: as above; assay type: biochemical; settings: 50 mM Tris-HCl pH 7.5, 1 mM methyl viologen, 5 mM Ti(III) citrate, anaerobic, 24 °C

With `ClC=C(Cl)Cl` [trichloroethene] the “KI,TCE” value (CfrA [1]) was “All three enzymes showed better model fits with uncompetitive inhibition” and the “KI,TCE” value (TmrA [2]) was “All three enzymes showed better model fits with uncompetitive inhibition”.
With `ClC(Cl)Cl` [chloroform] the “KI,CF” value (AcdA [3]) was 0.61 ± 0.24 mM and the Km (AcdA [4]) was 29 ± 8 µM.
In the case of `CC(Cl)(Cl)Cl` [1,1,1-trichloroethane], the Km (AcdA [5]) is reported as 280 ± 100 µM.
For `ClCC(Cl)Cl` [1,1,2-trichloroethane], the Km (AcdA [6]) was 120 ± 20 µM, the “KI,TCA” value (AcdA [7]) was 2 ± 0.55 mM and the “KI,TCA” value (CfrA [8]) was 7.1 ± 4.4 mM. The “KI,TCA” value (TmrA [9]) was 6.2 ± 3.7 mM.
